Results: patent US9120849B2 (priority 2000, dated 2015)
Like-named read-outs stand apart in the source and are kept apart here.

System: bovine viral diarrhea virus (BVDV)
Conditions: 60 minutes, 20° C., Reed and Muench
Protocol: In this example bovine viral diarrhea virus (BVDV), biotype 1 (CPE), genotype 1 Host: Madin-Darby bovine kidney (MDBK) cells were inactivated according to the methods discussed in Example 2.
Bovine viral diarrhea virus (BVDV), biotype I (CPE), genotype 1 was used in these studies which infect Madin-Darby bovine kidney (MDBK) cells. […] These samples (0.5 mL) were loaded into pre-spun sephacryl columns. The columns were spun for 4 minutes at 1000 rpm. The samples were aseptically removed from the columns and ten-fold serial dilutions were then prepared in minimal essential medium (MEM) and adsorbed on the monolayer of host cells seeded in tissue culture plates for one hour at 37±2° C. and 5±1% C02. Post-adsorption, the monolayers were washed with EBSS and replaced with fresh MEM and incubated for 5-7 days at 37±2° C. and 5±1% C02. The presence of infectious viruses was determined as described below: post-incubation, the plates were washed with 3× with PBS and fixed with TC grade alcohol and stained with direct porcine polyclonal anti-BVDV conjugated antibody. The stained plate were scored using UV microscopy using a Nikon Diaphot microscope, and monolayers that contained one or more BVDV surface antigen positive […] were scored positive. Four wells per dilution were inoculated and results were recorded as the FFFUD50 calculated by Reed and Munch (1938).

Measured: FFFUD50/mL (log10)

paraformaldehyde
0 FFFUD50/mL (log10): 2.5% paraformaldehyde column 1 | 2.5% paraformaldehyde column 2 | 2.5% paraformaldehyde column 3 | 2.5% paraformaldehyde column 4
